The results in this text go back to PMC11165489, “Polyketide Trimming Shapes Dihydroxynaphthalene‐Melanin and Anthraquinone Pigments” (Advanced Science, 2024).

What all share (format): binding
Experiment [1] concerns the target T1, PlAntI (Photorhabdus laumondii, UniProt Q7MZT8).
T1 construct: gene plu4186; crystallised enzyme; catalytic Ser245, His355, Asp326; construct and host only in supplement
T1 sequence (Q7MZT8 1-384): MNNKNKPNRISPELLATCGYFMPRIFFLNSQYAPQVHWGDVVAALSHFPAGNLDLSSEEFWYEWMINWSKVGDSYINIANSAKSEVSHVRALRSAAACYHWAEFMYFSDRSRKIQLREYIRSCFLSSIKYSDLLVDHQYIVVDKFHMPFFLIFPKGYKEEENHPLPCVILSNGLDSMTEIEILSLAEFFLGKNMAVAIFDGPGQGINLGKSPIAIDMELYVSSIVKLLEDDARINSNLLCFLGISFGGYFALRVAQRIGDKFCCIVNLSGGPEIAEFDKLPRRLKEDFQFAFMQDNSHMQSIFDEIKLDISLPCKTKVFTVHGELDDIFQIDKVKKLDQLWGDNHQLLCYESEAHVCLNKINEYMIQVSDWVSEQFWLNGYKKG
As to the kind of experiment: X-ray crystal structure; mass spectrometry. The following applies: covalent; Ser245 converted to dehydroalanine, inhibitor itself eliminated; 1.8 A.

The target in experiment [2] is T2, Wdyg1p (Exophiala dermatitidis, UniProt Q6BCB5).
T2 construct: gene yg1; homodimer; N-domain residues 1-139, C-domain residues 144-393; active-site Ser256, His378; construct and host only in supplement
T2 sequence (Q6BCB5 entry or part of it): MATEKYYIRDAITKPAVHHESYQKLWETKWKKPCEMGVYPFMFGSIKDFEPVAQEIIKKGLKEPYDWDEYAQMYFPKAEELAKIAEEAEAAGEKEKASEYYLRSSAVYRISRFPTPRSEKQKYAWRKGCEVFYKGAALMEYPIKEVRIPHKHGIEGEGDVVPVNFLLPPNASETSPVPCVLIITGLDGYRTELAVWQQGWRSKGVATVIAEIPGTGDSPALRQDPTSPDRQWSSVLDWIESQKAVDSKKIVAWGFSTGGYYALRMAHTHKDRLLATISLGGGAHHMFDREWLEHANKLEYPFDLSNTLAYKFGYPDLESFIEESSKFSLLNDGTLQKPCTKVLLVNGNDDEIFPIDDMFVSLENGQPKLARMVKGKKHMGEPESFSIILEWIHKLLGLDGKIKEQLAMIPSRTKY
As to the kind of experiment: X-ray crystal structure.

The target of experiment [3] is T3, Afyg1p (Aspergillus fumigatus, UniProt Q4WZB3).
T3 construct: gene ayg1; homodimer; active-site Ser257, His380, Asp352; construct and host only in supplement
T3 sequence (Q4WZB3 2-406): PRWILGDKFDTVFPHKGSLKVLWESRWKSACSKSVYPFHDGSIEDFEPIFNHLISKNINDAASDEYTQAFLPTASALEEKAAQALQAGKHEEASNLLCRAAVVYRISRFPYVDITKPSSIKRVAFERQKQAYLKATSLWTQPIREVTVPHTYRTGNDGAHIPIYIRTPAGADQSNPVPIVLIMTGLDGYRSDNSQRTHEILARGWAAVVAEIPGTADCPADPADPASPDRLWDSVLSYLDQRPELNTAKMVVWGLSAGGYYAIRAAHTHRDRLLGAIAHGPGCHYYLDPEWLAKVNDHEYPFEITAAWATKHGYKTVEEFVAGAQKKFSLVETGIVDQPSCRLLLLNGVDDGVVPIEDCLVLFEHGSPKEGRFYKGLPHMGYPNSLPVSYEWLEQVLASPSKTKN
As to the kind of experiment: X-ray crystal structure. The settings on record: reaction product in specificity pocket; 1.7 A.

For `O=S(=O)(F)c1ccccc1` [PSF, phenyl‐SF], the “X-ray crystal structure; mass spectrometry” value in experiment [1] is “treatment of PlAntI with PMSF (*) or PSF (^#) appears to also introduce a DHA”. Besides, the X-ray crystal structure entry in experiment [2] (covalent, Ser256 converted to dehydroalanine, inhibitor itself eliminated, 1.85 A) was “treatment of Wdyg1p with PMSF (*) or PSF (^#) leads to the β‐elimination mediated conversion”.
As to `Oc1cc(O)c2c(O)cc(O)cc2c1` [THN, 1,3,6,8‐tetrahydroxynaphthalene], the X-ray crystal structure entry was “the structure of Afyg1p in complex with its reaction product THN was analyzed” in experiment [3] and “Wdyg1p crystal structure in complex with its product, THN (Wdyg1p:THN, PDB ID: 8QD9” in experiment [2] (reaction product in specificity pocket, 1.95 A).
